Results reported in patent US20260048063A1, “FUSED AMINO PYRIMIDINE COMPOUNDS FOR TREATMENT OF NEURODEGENERATIVE DISORDERS” (Ovid Therapeutics Inc., priority 2024, published 2026).

Assays:
[1] = test system: panel of 144 protein kinases; assay: SelectScreen protein kinase panel; type: biochemical; settings: 144 protein kinases incl. PKC isoforms, OSR1, SPAK, WNK
Procedure: Aliquots of HEK-293 cells expressing KCC2 were exposed to 30 μM SSA, heated from 37-55° C. The remaining level of soluble native KCC2 at each temperature was measured by immunoblotting and normalized to the level seen at 37° C. which was given a value of 1. […] This panel included protein kinase C isoforms, OSR1, SPAK (STK39) and with-no-lysine kinases (WNK), all of which phosphorylate KCC2 on multiple residues to indirectly modify its activity (Kahle et al., 2013, supra; Smalley et al., 2020, supra).

KCC2-S940A = biological target: T1, KCC2-S940A (Homo sapiens, UniProt Q9H2X9, S963A); assay: Tl+ flux assay, HEK-293 cells expressing KCC2-S940A; type: cell-based
T1 construct: expressed in transfected cells; host or cells: HEK-293
T1 sequence (Q9H2X9 1-1116 isoform Q9H2X9-2 S940A): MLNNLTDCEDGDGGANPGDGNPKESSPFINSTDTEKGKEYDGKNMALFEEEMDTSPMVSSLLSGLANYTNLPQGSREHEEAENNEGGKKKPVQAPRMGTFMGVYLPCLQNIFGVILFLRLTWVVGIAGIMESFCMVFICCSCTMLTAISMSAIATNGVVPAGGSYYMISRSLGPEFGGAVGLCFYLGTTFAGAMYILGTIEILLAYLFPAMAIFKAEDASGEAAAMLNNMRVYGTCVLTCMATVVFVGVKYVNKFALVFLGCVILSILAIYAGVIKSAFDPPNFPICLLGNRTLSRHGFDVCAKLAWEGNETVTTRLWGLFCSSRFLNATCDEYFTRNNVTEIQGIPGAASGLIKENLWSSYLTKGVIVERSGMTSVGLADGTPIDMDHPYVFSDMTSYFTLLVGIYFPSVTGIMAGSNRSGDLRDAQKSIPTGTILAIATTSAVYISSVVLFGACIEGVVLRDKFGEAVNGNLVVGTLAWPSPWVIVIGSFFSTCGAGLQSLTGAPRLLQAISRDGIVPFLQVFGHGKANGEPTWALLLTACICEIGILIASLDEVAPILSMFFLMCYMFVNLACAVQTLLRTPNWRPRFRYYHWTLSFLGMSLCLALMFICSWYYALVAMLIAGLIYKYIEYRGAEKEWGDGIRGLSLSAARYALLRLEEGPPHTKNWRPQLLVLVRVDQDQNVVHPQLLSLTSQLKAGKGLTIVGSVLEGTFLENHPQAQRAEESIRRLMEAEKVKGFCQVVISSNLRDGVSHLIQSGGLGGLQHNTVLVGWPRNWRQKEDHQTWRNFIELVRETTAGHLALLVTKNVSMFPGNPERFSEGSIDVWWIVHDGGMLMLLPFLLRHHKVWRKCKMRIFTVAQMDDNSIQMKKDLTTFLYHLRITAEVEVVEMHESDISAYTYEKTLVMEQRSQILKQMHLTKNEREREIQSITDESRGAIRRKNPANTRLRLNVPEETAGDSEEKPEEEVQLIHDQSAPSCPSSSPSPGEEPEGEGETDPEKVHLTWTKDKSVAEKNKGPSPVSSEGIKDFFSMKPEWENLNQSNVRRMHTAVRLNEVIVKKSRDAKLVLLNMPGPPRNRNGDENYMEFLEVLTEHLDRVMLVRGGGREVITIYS
Procedure: FLIPR TI Flux assay. HEK-293 cells were washed with HBSS, and then incubated with loading buffer containing TI sensitive fluorescent dye (https://www.moleculardevices.com), 20 μM bumetanide 20 μM ouabain and 2.5 mM probenecid for 1 h at room temperature (RT) under control conditions or with drugs in the dark using a FlexStation 3 microplate reader (Molecular Devices) and imaged […] for 30 min. Stimulus buffer was added containing 5 mM K^+/0.5 mM Tl^+ and cells were imaged every 1.5 over a 190 second time course The initial rate Tl^+ uptake (Relative Fluorescence Units (RFU) per second) was determined following addition of the stimulus buffer as outlined previously (Conway et al., 2017, supra) (Lee et al., 2022, supra).
Several studies have shown that the activity and plasma membrane accumulation of KCC2 is potentiated via phosphorylation of S940, a process mediated by the activity of protein kinase C and protein phosphatase 1 (Lee et al., 2011, supra; Lee et al., J Biol Chem 282, 29777-29784 (2007); Moore et al., Proc. Natl. Acad. Sci. U.S.A. 115, 10166-10171 (2018); Moore et al., Trends Neurosci. 40, 555-571 (2017); Silayeva et al., Proc. Natl. Acad. Sci. U.S.A. 112, 3523-3528 (2015)). […] Compared to KCC2, effects on KCC3, KCC4, and NKCC1 were only seen at concentrations more than 35-fold that of KCC2 (>100 μM) (FIG. 1G).

mice [2] = assay: Kainic acid (KA) induced SE, EEG recording, pretreatment; type: in vivo; settings: 50 mg/kg SC pretreatment; vehicle 4.2±2.4×10^−6
Source text: This model was chosen due to the similarities with patients undergoing SE, as KA-induced seizures become refractory to benzodiazepines (BDZs) within minutes (Betjemann and Lowenstein, Lancet Neurol 14, 615-624 (2015); Crawshaw and Cock, (2020a) [Seizure: Eur. J. Epilep. 75 (2020) 145-152] Seizure 80, 282; Lee et al., 2022, supra; Reddy and Kuruba, Int J Mol Sci 14, 18284-18318 (2013)).
EEG recordings and analysis. WT C57Bl/6J adult male mice (12 weeks) were anesthetized with isofluorane and implanted with EEG/EMG electrodes and allowed to recover for 7 days prior to experimentation. […] 2 h following KA administration mice were injected with a saturating concentration of diazepam (DZ) 10 mg/kg (IP) and recordings were extended for a further 60 min. […] LabChart 8 software was used for data analysis. […]
To provide quantitative insights on the effects of KA, raw EEG recordings were subject to Fast-Fourier transformation (8K FFT size, Hann (cosine-bell), 87.50% window overlap) for frequencies between 0-100 Hz 2 h after KA injection (Lee et al., 2022, supra).

mice [3] = settings: in vivo
[4] = PK study, brain and plasma levels by LC-MS/MS; type: in vivo, mice
Procedure: PK studies. […] Plasma and brain samples were rapidly frozen on dry ice.
Drug accumulation in the brain was examined following SC injection (FIG. 4C; 50 mg/kg).

mice [5] = assay: KA induced SE, EEG, injection directly into the hippocampus; type: in vivo; settings: intrahippocampal pretreatment, DZ 2 h after KA
Procedure: 30 or 60 min later mice were injected with KA (20 mg/kg) and 2 h later with DZ as detailed above.

mice [6] = assay: KA induced ongoing SE, EEG, treatment 2 h after KA; type: in vivo; settings: given IP 2 h after KA
Procedure: EEG recordings and analysis. WT C57Bl/6J adult male mice (12 weeks) were anesthetized with isofluorane and implanted with EEG/EMG electrodes and allowed to recover for 7 days prior to experimentation. […] 2 h following KA administration mice were injected with a saturating concentration of diazepam (DZ) 10 mg/kg (IP) and recordings were extended for a further 60 min. […] LabChart 8 software was used for data analysis. Epileptiform activity was identified by changes in the amplitude of electrographic activity characterized by consistent changes in the power of the Fast Fourier transform (FFT) of the EEG and abnormal activity characterized by periods of rhythmic spiking lasting longer than 30 s (Moore et al., 2017, supra; Silayeva et al., 2015, supra; Sivakumaran et al., J. Neurosci. 35, 8291-8296 (2015)).
To evaluate the potential of KCC2 activators to terminate ongoing SE, the KA model described above was employed. Mice were injected with KA (20 mg/Kg; IP). […] Spectral data were then subjected to FFT and the total EEG power between 1-100 Hz of the 2 h following KA treatment (pre-drug) and 30 min following their injection (post-drug) were compared (FIG. 6B). In mice treated with DZ alone variable effects were observed, from large increases to modest reductions in EEG power, but these effects were not significant (FIG. 6C; pre=1.1±0.2×10^−6, post=4.4±7.4×10^−7 V^2, p=0.214, n=13-14 mice). […]

mice [7] = assay: TUNEL staining of hippocampal CA1 48 h after KA injection; type: in vivo
Procedure: To determine if KCC2 activators have an impact on the extent of neuronal injury, brain sections from mice that survived for 48 h after KA injection were subjected to Terminal deoxynucleotidyl transferase dUTP nick end (TUNEL) staining to visualize dead cells, and counterstained with DAPI. The number of TUNEL positive cells in the CA1 region of the hippocampus were then compared between treatment groups.

Compound	activity of the kinase panel [1]	activity of KCC2-S940A construct (KCC2-S940A)	total EEG power 2 h after KA (pre DZ) (mice [2])	effects on mouse behavior in the open field (mice [3])	brain level 8 h later ([4]; 50 mg/kg SC)	time of maximal concentration in the brain ([4]; 50 mg/kg SC) [h]	concentration at 30 min ([4]; mouse, in vivo, 25 mg/kg IV bolus, read-out: accumulation in brain and plasma, third value not assigned) [µM]	effect of DZ on seizure parameters in pretreated mice (mice [5])	mean time to suppression (EEG power reduced to 50%) (mice [6]) [min]	TUNEL positive CA1 cells (mice [7]) [dead cells/ROI]
C[C@@H]1CN(c2nc3c(c(Nc4ccc(C5CCCCC5)cc4)n2)COC3)CCO1 [Compound A, (R)—N-(4-cyclohexylphenyl)-2-(2-methylmorpholino)-5,7-dihydrofuro[3,4-d]pyrimidin-4-amine]	did not modify the activity	increased the activity of KCC2-S940A construct	6.9±3.2×10^−7 V^2	no gross effects on mouse behavior	maintained	4	11.2	DZ significantly reduced seizure parameters		
CN1C(=O)CN=C(c2ccccc2)c2cc(Cl)ccc21 [DZ, diazepam]									32.5 ± 6.7	40.93±3.35
